The source of these data is US11839658B2, “Aminoglycoside derivatives and nano-assemblies thereof, including those with quorum sensing inhibitory function” (priority 2017, dated 2023).

Converted amounts (≈) assume the structure as drawn. Bounds are passed on as bounds.

A short description of series [1]: Dynamic light scattering (DLS): zeta-potential, mean diameter, PDI of nano-assemblies. It counts as physicochemical.
For series [2], the system named is Pyocyanin released from PA14 bacteria (wild type). The series is described as follows: Pyocyanin assay on Pseudomonas aeruginosa. It counts as cell-based. The note with it: 18 μg/mL Farnesal or Farnesol, 16 h, n=9. The protocol: Pyocyanin assay was used to quantify the amount of Pyocyanin molecule released from PA14 bacteria (wild type) which were grown aerobically for 16 hours. The Pyocyanin assay was performed as follows:
A single colony of PA14 was removed from agar plates after 16 hours of growth at 37° C. and transferred into 25 mL Erlenmeyer flasks with 10 mL of PPGAS (proteose peptone glucose ammonium salt medium which is composed of (1 g/L NH4Cl, 1.5 g/L KCl, 19 g/L Tris-HCl, 10 g/L peptone, glucose 5 g/L and 0.1 g/L MgSO4·7H2O, the medium was adjusted to pH 7.4, and sterilized before use). Following 16 hours of aerobic growth with shaking at 200 rpm and 37° C., cultures were centrifuged at 7.450 g, washed twice with 10 mL of fresh PPGAS medium, and resuspended to a final volume of 5 mL solution. Cultures were then diluted to a final OD600 of 0.02 and distributed into 24 well-plates, 1.5 mL each well.
Compounds Farnesal and Farnesol were diluted in DMSO, then added to wells containing PA14 bacteria, in 1:100 dilutions with a final DMSO concentration of 1% (v/v), so that the final concentration of Farnesal was 18 μg/mL, and of Farnesol was 18 μg/mL. […]
All cultures were incubated for an additional 16 h under aerobic conditions as mentioned above. […] OD520 was measured in the aqueous phase. […]

Series [3] concerns 24 hours old PA14 biofilm. Put plainly: Minimum Biofilm Eradicating Concentration (MBEC) assay. It counts as cell-based, Pseudomonas aeruginosa. Conditions: 24 h old PA14 biofilm treated 24 hours. The procedure:
Minimum Biofilm Eradicating Concentration (MBEC) assay was used to determine the minimum concentration of active agents at which a 24 hours old PA14 biofilm is completely eradicated. The MBEC assay was performed as follows: […]
The 96 well-plates were then kept at 37° C. without shaking for 24 hours to allow the forming of biofilm. Afterwards, the planktonic bacteria were removed, and the 24 hours old biofilm was washed twice with PBS, then fed with fresh PPGAS medium, and ready for the assay. […]
All cultures were incubated for an additional 24 hours at 37° C. without shaking. […] All cultures were then measured OD650, and the biofilm is considered to be completely eradicated once the resulting OD650 is equal or lower than OD650 of PPGAS medium.

Another series deals with E. coli. Conditions: literature value; cited from earlier work.
Series [4] has as its system P. aeruginosa strain PA14 (wild type). The series is described as follows: MIC assay against Pseudomonas aeruginosa. It counts as cell-based. The note with it: PA14, read-out: MIC-90 against PA14. The procedure: The minimum inhibitory concentration (MIC) of the of the tobramycin containing nano-assemblies of example 2 against the P. aeruginosa strain PA14 (wild type) was tested and compared to known MIC values of tobramycin.

The compound `CC(C)=CCCC(C)=CCCC(C)=CC=O` [Farnesal] showed a zeta-potential in series [1] of −33.8±0.5 mV. Further, the “percentage inhibition of released Pyocyanin vs PA14 wt control” value in series [2] is given as 5.85±3.10%.
`CC(C)=CCCC(C)=CCCC(C)=CCO` [Farnesol]: in series [2], the “percentage inhibition of released Pyocyanin vs PA14 wt control” value came out at 12.29±7.35%.
In the case of `NC[C@H]1O[C@H](O[C@H]2[C@H](O)[C@@H](O[C@H]3O[C@H](CO)[C@@H](O)[C@H](N)[C@H]3O)[C@H](N)C[C@@H]2N)[C@H](N)C[C@@H]1O` [Tobramycin], in series [3], the “Tobramycin concentration needed for complete biofilm eradication (MBEC)” value was not below 100 µg/mL. For the same compound, the “MIC-90 against E. coli (Dienstag and Neu)” value with E. coli is 6.25 µg/mL (≈ 13.4 µM). Further, the MIC90 in series [4] is 6.25 to 12.5 µg/mL (≈ 13.4 to 26.7 µM).
